For 49 compounds, EC50, IC50 and outcome results are on record in PubChem BioAssay AID179 (DTP/NCI, 2004).

The assay concerns CEM cells HIV-1 protection, formazan growth assay. Description: NCI AIDS Antiviral Assay. Conditions: for pIC50: measured here: growth of uninfected CEM cells. In a few lines: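 Five concentrations of each compound were applied to infected and uninfected human CEM cells. Protection from HIV-1 was judged from growth measured with a soluble formazan assay.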

One may read the pEC50 as the EC50 on a negative log10 scale, so that one unit is a factor of ten. As a reminder, the pIC50 is the negative decadic logarithm of the IC50, by convention in mol/L. High values mean a small IC50, low ones a large IC50.

pEC50, pIC50: −log10 of the molar value. Active and inactive are the calls of the source.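 The calls were made as follows: active = compounds giving half or more protection of infected cells from virus-caused growth loss, again on retest; inactive = the rest.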 Where a SMILES comes first, the peptide text is derived from it. Where only a bound is given, the exact number is not on record here.

Regarding `COC1(CC[C@@H](C)COC2OC(CO)C(O)C(O)C2O)O[C@H]2C[C@H]3[C@@H]4CC=C5C[C@@H](OC6OC(CO)C(O)C(OC7OC(CO)C(O)C(O)C7O)C6OC6OC(C)C(O)C(O)C6O)CC[C@]5(C)[C@H]4CC[C@]3(C)[C@H]2[C@@H]1C` (stereo not given in full), the pEC50 is less than 3.70 and the pIC50 is 5.48.

With `N#Cc1cc2c(cc1C#N)SCCSCCCSCCS2`, the outcome was inactive.

`COc1ccc(C(=O)C(C(=O)C(=O)NCCCNC(=O)C(=O)C(C(=O)c2ccc(OC)cc2)c2ccc(OC)cc2)c2ccc(OC)cc2)cc1` (stereo not given): the result was inactive.

Consider `CC1Cn2c(nc3ccccc32)NC1=O` (stereo not given), for which the pEC50 is less than 3.70 and the pIC50 was less than 3.70.

`CNCC(=O)NC(CO)C(=O)NC(CO)C(=O)NC1C(C(N)=O)OC(n2ccc(N)nc2=O)C(O)C1O` (stereo not given): the result was inactive.

`CC(C)Oc1c(O)c2c3c(oc(=O)n3C=CC2c2ccccc2)c1OC(C)C` (stereo not given): the pEC50 was less than 3.70 and the pIC50 was 4.66.

Take `[N-]=[N+]=Nc1c(-c2ccccc2)c(Cl)nc2ccccc12`: the pEC50 is less than 3.70 and the pIC50 is 4.69.

`CN(C)c1ccc(C=C2C(=O)NC(=O)NC2=O)cc1`: the pEC50 was less than 4.55 and the pIC50 is less than 4.55.

For the compound `CC(C)C1NC(=O)[C@H](C)OC(=O)[C@@H](C(C)C)NC(=O)[C@@H](C)OC(=O)C(C(C)C)NC(=O)[C@H](C)OC1=O` (stereo not given in full), the pEC50 is less than 3.60 and the pIC50 is less than 3.60.

As to `C=C1C(=O)OC2C1CC[C@H](C)C1(O)C(O)CC(=O)[C@@]21C` (stereo not given in full), the outcome was inactive.

As to `O=C(Nc1cc(Cl)c(Cl)cc1Cl)C(=O)C(C(=O)c1ccc2ccccc2c1)C1OC(=O)c2ccccc21` (stereo not given), the pEC50 was less than 4.19 and the pIC50 is 4.50.

On to `Nc1ccc(C(=O)N/C(=C\c2cccc([N+](=O)[O-])c2)c2nc3c4c(ccc3[nH]2)C(=O)c2ccccc2C4=O)cc1`, for which the outcome was inactive.

For the compound `COc1ccc(-c2c(C3=NCCCN3)nnn2-c2ccc([N+](=O)[O-])cc2)cc1`, the pEC50 is less than 4.86 and the pIC50 is less than 4.86.

As for `CNc1ncc(-c2nnnn2-c2ccccc2)c(CN(C)C)n1`, the pEC50 is less than 3.70 and the pIC50 was less than 3.70.

For `C=C(C)[C@@H]1CCC2=C[C@@H](OC2=O)[C@@H](C(=C)C)C2=CC(C(=O)O)=C(C1)O2`, the pEC50 was less than 3.70 and the pIC50 was 4.04.

`Cc1c(C(=O)NNc2ccccc2)n2c(=S)[nH]nc2c2ccccc12`: the pEC50 was less than 3.70 and the pIC50 is 4.03.

Regarding `CCc1nc(N)nc(N)c1-c1ccc(Cl)c(Cl)c1`, the pEC50 is less than 3.70 and the pIC50 is 5.84.

Take `O=C(O)c1c2c(nc3ccccc13)-c1ccccc1C1(CCCC1)C2`: the pEC50 is less than 3.33 and the pIC50 is 3.77.

For `Cc1cccc(NC(=O)CSc2nnc(Cc3ccccc3)o2)c1`, the pEC50 is less than 3.27 and the pIC50 was less than 3.27.

For `CCOC(=O)/C(=C\c1ccc(N(C)C)cc1)[Se]c1ccccc1`, the pEC50 was less than 4.16 and the pIC50 was less than 4.16.

Turning to `C=CCOCn1ccc(NC(=O)c2ccccc2)nc1=O`, the pEC50 is less than 3.70 and the pIC50 was less than 3.70.

`COC1/C=C/OC2(C)Oc3c(C)c(O)c4c(O)c(c(/C=N/N5CC(C)N(Cc6ccccc6)C(C)C5)c(O)c4c3C2=O)NC(=O)C(C)=C/C=C/C(C)C(O)C(C)C(O)C(C)C(OC(C)=O)C1C` (stereo not given): the pEC50 is less than 3.70 and the pIC50 was 5.51.

For the compound `Clc1ccc(CSc2nnc3c(n2)[nH]c2ccccc23)cc1`, the pEC50 is less than 3.70 and the pIC50 was 4.37.

Regarding `Cc1cc(=O)[nH]c(NN2C(Cl)C(=O)C2c2cccc(Cl)c2)n1` (stereo not given), the pEC50 is less than 3.70 and the pIC50 is 4.52.

For the compound `Nc1cc2nc(=O)cc3n2c(n1)SC3`, the pEC50 is less than 4.17 and the pIC50 was less than 4.17.

Consider `CCC(=O)N/N=C(\C=C\c1cccc(O)c1)c1sc(Nc2ccc(C)cc2[N+](=O)[O-])nc1C`, for which the pEC50 is less than 4.11 and the pIC50 was less than 4.11.

`CC(C)(C)OC(=O)N[C@@H](Cc1ccccc1)CN1CCCC1C(=O)OCc1ccccc1` (stereo not given in full): the pEC50 was less than 4.51 and the pIC50 was less than 4.51.

For `CCCCCCCCCCOc1cc2c(=O)c(C(=O)OCC)c[nH]c2cc1OCC`, the pEC50 is less than 3.70 and the pIC50 was less than 3.70.

On to `COc1ccc(N=c2ssc3c(=S)ssc23)cc1`, for which the result was inactive.

In the case of `Nc1nccc2c1ncn2C1C=C(CO)C(O)C1O` (stereo not given), the pEC50 was less than 3.08 and the pIC50 is 6.49.

`N#Cc1cc2c(n(NS(=O)(=O)c3ccccc3)c1=O)CCCCC2`: the pEC50 was less than 3.70 and the pIC50 is less than 3.70.

With `CC(=O)OCC(OC(C)=O)C(OC(C)=O)C1OC(Oc2ccccc2)C(OC(C)=O)C1OC(C)=O` (stereo not given), the pEC50 is less than 3.70 and the pIC50 was less than 3.70.

As for `COc1ccc(NC(=O)/C(=N\NC(=O)C[n+]2ccccc2)c2c(O)c3ccc(O)cc3oc2=O)c([N+](=O)[O-])c1`, the pEC50 is less than 3.36 and the pIC50 is 4.14.

In the case of `O=C(Nn1c(-c2ccccc2)nc2ccccc2c1=O)c1cccc([N+](=O)[O-])c1`, the pEC50 is less than 3.70 and the pIC50 is 3.78.

In the case of `C1CN2N3CCCC23C1` (stereo not given), the pEC50 was less than 2.70 and the pIC50 was less than 2.70.

As to `O=S1(=O)CC(c2ccccc2)=NN=C(c2ccccc2)C1`, the pEC50 was less than 4.21 and the pIC50 was less than 4.21.

Regarding `CCCn1c(=O)c2nn3c(=O)n(CCC)c(=O)c3nn2c1=O`, the pEC50 was less than 3.70 and the pIC50 was less than 3.70.

In the case of `C/C(=N\NC(=S)Nc1ccccc1)[C@H]1C2CCC(C2)C1C/C=C\CCCC(=O)O` (stereo not given in full), the pEC50 is less than 3.64 and the pIC50 is 3.97.

Take `O=C(Nc1ccc(O)c(C(=O)O)c1)c1ccccc1`: the pEC50 is less than 3.70 and the pIC50 was less than 3.70.

In the case of `COC(=O)[C@@H]1[C@H]2[C@H](OC(=O)c3ccccc3)CCN2C(=O)[C@H]1O`, the pEC50 is less than 3.70 and the pIC50 is 4.12.

Take `NCCCCC(NC(=O)OCc1ccccc1)C(=O)NCC(N)=O` (stereo not given) (HELM PEPTIDE1{[O=C(OCc1ccccc1)[*:2]].[NCCCCC(N[*:1])C(=O)[*:2]].G.[am]}$$$$V2.0): the pEC50 is less than 3.70 and the pIC50 is less than 3.70.

Regarding `CO[C@H](C(=O)O[C@H]1C(=O)N2CC[C@@H]3CCC[C@H]1C32C)c1ccccc1` (stereo not given in full), the pEC50 is less than 3.14 and the pIC50 was 3.36.

`COc1ccc2c(c1OCC(=O)O)C(=O)C(CCC(=O)O)CC2` (stereo not given): the result was inactive.

Take `COc1ccc(S(=O)(=O)OC)cc1C(=O)c1cc(S(=O)(=O)OC)ccc1OC`: the pEC50 is less than 4.63 and the pIC50 was less than 4.63.

Consider `Cn1c(=O)c2c(nc(N/N=c3/scc(-c4ccccc4)n3Cc3ccccc3)n2C)n(C)c1=O`, for which the pEC50 was less than 3.70 and the pIC50 is 4.91.

`CCCCCCCCCCCCCNC1=C(O)c2ccccc2C(=O)C1=O`: the result was inactive.

In the case of `COC(=O)C(C(=O)c1ccccc1)C(C(=O)C(=O)Nc1ccc(OC)cc1OC)C(=O)C(=O)c1ccc(C)cc1` (stereo not given), the pEC50 is less than 3.34 and the pIC50 was 3.39.

Turning to `COc1cc(OC)cc(C2=NNc3n[nH]c(=S)n3N2)c1`, the pEC50 was less than 3.91 and the pIC50 is less than 3.91.

On to `O=C(Cc1ccccc1)NN1C(=O)C(Cl)C1c1ccccc1` (stereo not given), for which the pEC50 is less than 4.50 and the negative logarithm of the IC50 (pIC50) is less than 4.50.
